Entries after “also recorded” stand apart in the source; their conditions may differ. Counter-ions that a name gives are not always drawn.
Key:
[1] = Photostability test, ultraviolet light (200 W·hr/m2) exposure
[2] = Solid-state stress stability test (humidity 90 % RH)
[3] = Solid-state accelerated stability test (40 ± 2 °C/RH 75 ± 5 %)
Protocol: (§1) Operation and Calculation: The blank solution, standard solution, and test solution were sequentially tested under the instrument operating conditions according to the liquid chromatography method in the General Test Methods of the 12th Edition of the Korean Pharmacopoeia, and the amount of related substances was calculated using the following equation. Amount of each related; substance (%) = (AT)/(AS) × (CS)/(CT) × (Molecular weight; of the sample)/(Molecular weight; of the standard; product) × P × (1)/(RR; F) [formula] AT = Area of each related substance peak obtained from the test solution AS = Area of the tegoprazan peak obtained from the standard solution CS = Concentration of standard solution (mg/mL) CT = Concentration of test solution (mg/mL) P = Purity/Assay/Potency (%) of standard product RRF = Relative response factor (1.0)
(§2) A solid-state stability comparative test was conducted on each of the above-mentioned prepared tegoprazan acid addition salts. The stability comparative test was conducted for 1 month under the conditions shown in Table 6 below in accordance with The International Council for Harmonisation of Technical Requirements for Pharmaceuticals for Human Use (ICH) guideline, and the purity of the acid addition salt, total related substances, and the content of degradants were measured by HPLC at the initial time point and after 1 month. Total related substances and degradants were measured according to the related substance test method (HPLC).

[4] = Solid-state stress stability test (temperature 60 °C)
Protocol: as §1, §2
2) Stress Stability Test (temperature 60 °C)

[5] = Liquid stability comparative test (20 mg/mL in purified water, 40 °C, 24 hours, HPLC); type: physicochemical; conditions: for Initial Purity (%): initial time point
Protocol: The analysis conditions are as follows.
Each sample was dissolved in purified water to prepare a solution with a concentration of 20 mg/mL, stored at an external temperature of 40 °C, and analyzed by HPLC at the initial time point and after 24 hours to measure purity, and the change in the generated degradant (Formula 4) was measured. The analysis of total related substances and degradants was performed by taking a liquid from a solution prepared at a concentration of 20 mg/mL, diluting it to a concentration of 4 mg/mL with the diluent of the related substance test method (HPLC), and measuring it as a test solution, and analyzing it according to the related substance test method (HPLC).

[6] = Photostability test, visible light (1.2 Mlux·hr) exposure
[7] = Table 10, UV 200 W·hr/m2, PE bag
[8] = 40 ± 2 °C / RH 75 ± 5 %, 1 month
[9] = 20 mg/mL in purified water, 40 °C, 24 hours
[10] = Table 11 under heading Visible Light (1.2 Mlux-hr) Exposure Test

Cc1nc2c(O[C@H]3CCOc4cc(F)cc(F)c43)cc(C(=O)N(C)C)cc2[nH]1 [Malate Salt]
After Ultraviolet Light Exposure (200 W hr/m2)(%) Degradant [1, 7]: 0.011%
After Ultraviolet Light Exposure (200 W hr/m2)(%) Total Related substances [1, 7]: 0.172%
Change (%) Degradant ([1]; Table 10, after UV exposure vs initial): 0.007%
Initial (%) Degradant ([1]; Table 10, initial): 0.004%
Initial (%) Total Related substances ([1]; Table 10, initial): 0.146%
Change in Quality (%) Light (Ultraviolet) Degradant ([1]; Table 12 summary): 0.007%
absorb moisture and deliquesce / melted ([2]; 90 % RH): absorb moisture and deliquesce; also recorded: melted
Remarks ([2]; 90 % RH, 1 month, state of the solid): Melted
Initial (%) Degradant ([2]; Table 9, initial): 0.004%
Initial (%) Total Related substances ([2]; Table 9, initial): 0.146%
Change in Quality (%) 90 % RH (4 weeks) Degradant ([2]; Table 12 summary): Melted
Change in Quality (%) 90 % RH (4 weeks) Purity ([2]; Table 12 summary): Melted
After 1 Month (%) Degradant [3, 8]: 0.049%
After 1 Month (%) Total Related substances [3, 8]: 0.236%
Change (%) Degradant ([3]; 40 ± 2 °C / RH 75 ± 5 %, 1 month vs initial): 0.045%
Initial (%) Total Related substances ([3]; Table 7, initial): 0.146%
Initial (%) Degradant ([3]; Table 7, initial, degradant of Formula 4): 0.004%
Change in Quality (%) Accelerated (4 weeks) Degradant ([3]; Table 12 summary): 0.045%
Change in Quality (%) Accelerated (4 weeks) Purity ([3]; Table 12 summary): -0.090%
purity change after 1 month ([3]; accelerated stability): ≤ 0.1%
After 1 Month (%) Degradant ([4]; 60 °C, 1 month): 1.320%
After 1 Month (%) Total Related substances ([4]; 60 °C, 1 month): 2.026%
Change (%) Degradant ([4]; 60 °C, 1 month vs initial): 1.316%
Initial (%) Degradant ([4]; Table 8, initial): 0.004%
Initial (%) Total Related substances ([4]; Table 8, initial): 0.146%
Change in Quality (%) 60 °C (4 weeks) Degradant ([4]; Table 12 summary): 1.316%
Change in Quality (%) 60 °C (4 weeks) Purity ([4]; Table 12 summary): -1.880%
After 24 hours Purity (%) [5, 9]: Solid precipitated
Initial Purity (%) ([5]; 20 mg/mL in purified water): 99.98%
After 24 hours Degradant (%) ([5]; degradant of Formula 4, 20 mg/mL in purified water, 40 °C, 24 hours): Solid precipitated
solid precipitation / solution state ([5]; stored at 40 °C for 24 hours): solid precipitation; also recorded: solids were precipitated
Change (%) Degradant ([6]; Table 11, after exposure vs initial): 0.031%
Initial (%) Degradant ([6]; Table 11, initial): 0.004%
Initial (%) Total Related substances ([6]; Table 11, initial): 0.146%
After (%) Degradant [6, 10]: 0.035%
After (%) Total Related substances [6, 10]: 0.263%
Change in Quality (%) Light (Visible) Degradant ([6]; Table 12 summary): 0.031%

Cc1nc2c(O[C@H]3CCOc4cc(F)cc(F)c43)cc(C(=O)N(C)C)cc2[nH]1 [Hydrochloride Salt (Amorphous Form)]
After Ultraviolet Light Exposure (200 W hr/m2)(%) Total Related substances [1, 7]: 0.313%
Initial (%) Total Related substances ([1]; Table 10, initial): 0.207%
After 1 Month (%) Total Related substances ([2]; 90 % RH, 1 month): 0.335%
change ([2]; 90 % RH, 1 month): ≤ 0.15%
Initial (%) Total Related substances ([2]; Table 9, initial): 0.207%
After 1 Month (%) Total Related substances [3, 8]: 0.467%
Initial (%) Total Related substances ([3]; Table 7, initial): 0.207%
Change in Quality (%) Accelerated (4 weeks) Purity ([3]; Table 12 summary): -0.260%
After 1 Month (%) Total Related substances ([4]; 60 °C, 1 month): 1.536%
Initial (%) Total Related substances ([4]; Table 8, initial): 0.207%
Change in Quality (%) 60 °C (4 weeks) Purity ([4]; Table 12 summary): -1.329%
Amount of Change Degradant (%) [5]: 0.21%
After 24 hours Purity (%) [5, 9]: 99.69%
Initial Purity (%) ([5]; 20 mg/mL in purified water): 99.94%
Initial (%) Total Related substances ([6]; Table 11, initial): 0.207%
After (%) Total Related substances [6, 10]: 0.637%

From patent publication EP4678639A1, “SALT OF BENZIMIDAZOLE DERIVATIVE” (JW Pharmaceutical Corporation, priority 2023, dated 2024)
